According to the NIST ThermoML archive (doi:10.1016/j.jct.2011.01.008):

Legend:
[1] = refractive index (Na D-line) (dimensionless); xn = mol fraction of the nth substance listed; conditions: 298.15 K, 96 kPa, Liquid, Standard Abbe refractometry
[2] = xn = mol fraction of the nth substance listed; conditions: 96 kPa, Liquid, Vibrating tube method

CCCCC=O [pentanal] + CCOS(=O)(=O)[O-].CCn1cc[n+](C)c1
[1]
Conditions	refractive index
x1 = 0.0792	1.4793
x1 = 0.101	1.4788
x1 = 0.2039	1.4759
x1 = 0.3008	1.4718
x1 = 0.4074	1.4672
x1 = 0.5048	1.4621
x1 = 0.6047	1.4554
x1 = 0.7012	1.4486
x1 = 0.8024	1.4403
x1 = 0.897	1.431
x1 = 0.9513	1.4231
x1 = 1	1.396

[2]
Conditions	mass density [kg/m3]
288.15 K, x1 = 0.0792	1218.05
288.15 K, x1 = 0.101	1213.67
288.15 K, x1 = 0.3008	1168.57
288.15 K, x1 = 0.4074	1139.93
288.15 K, x1 = 0.6047	1073.97
288.15 K, x1 = 0.7012	1036.82
288.15 K, x1 = 0.897	935.22
288.15 K, x1 = 0.9513	896.87
288.15 K, x1 = 1	814.15
288.16 K, x1 = 0.2039	1191.69
288.16 K, x1 = 0.5048	1109.32
288.16 K, x1 = 0.8024	990.74
293.14 K, x1 = 0.0792	1215
293.14 K, x1 = 1	809.45
293.15 K, x1 = 0.101	1210.75
293.15 K, x1 = 0.2039	1188.69
293.15 K, x1 = 0.3008	1165.47
293.15 K, x1 = 0.4074	1136.9
293.15 K, x1 = 0.5048	1106.25
293.15 K, x1 = 0.6047	1070.53
293.15 K, x1 = 0.7012	1033.26
293.15 K, x1 = 0.8024	986.74
293.15 K, x1 = 0.897	931.08
293.15 K, x1 = 0.9513	892.5
298.14 K, x1 = 0.0792	1211.93
298.14 K, x1 = 0.101	1207.59
298.14 K, x1 = 0.2039	1185.49
298.14 K, x1 = 0.3008	1162.15
298.14 K, x1 = 0.4074	1133.5
298.14 K, x1 = 0.5048	1102.7
298.14 K, x1 = 0.6047	1066.69
298.14 K, x1 = 0.7012	1029.35
298.14 K, x1 = 0.8024	982.52
298.14 K, x1 = 0.897	926.62
298.14 K, x1 = 0.9513	887.82
298.14 K, x1 = 1	804.73
303.14 K, x1 = 0.101	1204.47
303.14 K, x1 = 0.2039	1182.28
303.14 K, x1 = 0.3008	1158.83
303.14 K, x1 = 0.4074	1130.07
303.14 K, x1 = 0.5048	1099.13
303.14 K, x1 = 0.6047	1062.78
303.14 K, x1 = 0.7012	1025.33
303.14 K, x1 = 0.8024	978.11
303.14 K, x1 = 0.897	921.84
303.14 K, x1 = 0.9513	882.85
303.15 K, x1 = 0.0792	1208.72
303.15 K, x1 = 1	799.97
308.14 K, x1 = 0.101	1201.4
308.14 K, x1 = 0.2039	1179.03
308.14 K, x1 = 0.4074	1126.55
308.14 K, x1 = 0.5048	1095.35
308.14 K, x1 = 0.6047	1058.77
308.14 K, x1 = 0.7012	1021.17
308.14 K, x1 = 0.897	916.87
308.14 K, x1 = 0.9513	877.74
308.15 K, x1 = 0.0792	1205.39
308.15 K, x1 = 0.3008	1155.36
308.15 K, x1 = 0.8024	973.48
308.15 K, x1 = 1	795.17
313.14 K, x1 = 0.0792	1201.93
313.14 K, x1 = 0.2039	1175.7
313.14 K, x1 = 0.4074	1122.78
313.14 K, x1 = 0.5048	1091.33
313.14 K, x1 = 0.6047	1054.63
313.14 K, x1 = 0.7012	1016.96
313.14 K, x1 = 0.897	911.86
313.14 K, x1 = 0.9513	872.76
313.14 K, x1 = 1	790.33
313.15 K, x1 = 0.101	1198.11
313.15 K, x1 = 0.3008	1151.83
313.15 K, x1 = 0.8024	966.65
318.14 K, x1 = 0.0792	1198.39
318.14 K, x1 = 0.2039	1172.28
318.14 K, x1 = 0.5048	1087.33
318.14 K, x1 = 0.6047	1050.4
318.14 K, x1 = 0.7012	1012.64
318.14 K, x1 = 0.8024	962.44
318.14 K, x1 = 0.897	906.82
318.14 K, x1 = 0.9513	867.68
318.14 K, x1 = 1	785.46
318.15 K, x1 = 0.101	1194.8
318.15 K, x1 = 0.3008	1148.23
318.15 K, x1 = 0.4074	1119.06
323.14 K, x1 = 0.0792	1195.73
323.14 K, x1 = 0.2039	1168.79
323.14 K, x1 = 0.5048	1083.27
323.14 K, x1 = 0.6047	1046.09
323.14 K, x1 = 0.8024	959.29
323.14 K, x1 = 0.9513	862.54
323.14 K, x1 = 1	780.55
323.15 K, x1 = 0.101	1191.43
323.15 K, x1 = 0.3008	1144.59
323.15 K, x1 = 0.4074	1115.15
323.15 K, x1 = 0.7012	1008.39
323.15 K, x1 = 0.897	901.88

CCC=O [propanal] + CCOS(=O)(=O)[O-].CCn1cc[n+](C)c1
[1]
Conditions	refractive index
x1 = 0.077	1.4789
x1 = 0.1702	1.4768
x1 = 0.2146	1.473
x1 = 0.3671	1.4641
x1 = 0.4184	1.4627
x1 = 0.5246	1.4532
x1 = 0.616	1.4467
x1 = 0.7074	1.4369
x1 = 0.8104	1.426
x1 = 0.9022	1.41
x1 = 0.9521	1.3854
x1 = 1	1.3648

[2]
Conditions	mass density [kg/m3]
288.14 K, x1 = 0.1702	1215.95
288.14 K, x1 = 0.4184	1170.49
288.14 K, x1 = 1	807.26
288.15 K, x1 = 0.2146	1209
288.15 K, x1 = 0.3671	1182.78
288.15 K, x1 = 0.5246	1139.5
288.15 K, x1 = 0.616	1108.79
288.15 K, x1 = 0.7074	1069.7
288.15 K, x1 = 0.8104	1012.95
288.15 K, x1 = 0.9022	936.46
288.15 K, x1 = 0.9521	876.3
288.16 K, x1 = 0.077	1227.88
293.15 K, x1 = 0.077	1224.4
293.15 K, x1 = 0.1702	1212.43
293.15 K, x1 = 0.5246	1136.2
293.15 K, x1 = 0.616	1105.04
293.15 K, x1 = 0.7074	1066.43
293.15 K, x1 = 1	801.06
293.16 K, x1 = 0.2146	1205.39
293.16 K, x1 = 0.3671	1178.94
293.16 K, x1 = 0.4184	1166.66
293.16 K, x1 = 0.8104	1008.26
293.16 K, x1 = 0.9022	931.16
293.16 K, x1 = 0.9521	870.71
298.15 K, x1 = 0.1702	1208.92
298.15 K, x1 = 0.5246	1132.3
298.15 K, x1 = 0.616	1101.02
298.15 K, x1 = 1	794.85
298.16 K, x1 = 0.077	1220.94
298.16 K, x1 = 0.2146	1201.81
298.16 K, x1 = 0.3671	1175.21
298.16 K, x1 = 0.4184	1162.88
298.16 K, x1 = 0.7074	1062.18
298.16 K, x1 = 0.8104	1003.73
298.16 K, x1 = 0.9022	925.91
298.16 K, x1 = 0.9521	865.19
303.15 K, x1 = 0.077	1217.48
303.15 K, x1 = 0.5246	1128.46
303.15 K, x1 = 0.7074	1058.06
303.15 K, x1 = 1	788.72
303.16 K, x1 = 0.1702	1205.39
303.16 K, x1 = 0.2146	1198.24
303.16 K, x1 = 0.3671	1171.5
303.16 K, x1 = 0.4184	1159.08
303.16 K, x1 = 0.616	1097.06
303.16 K, x1 = 0.8104	999.38
303.16 K, x1 = 0.9022	920.77
303.16 K, x1 = 0.9521	859.8
308.15 K, x1 = 0.077	1214.04
308.15 K, x1 = 0.2146	1194.69
308.15 K, x1 = 0.3671	1167.83
308.15 K, x1 = 0.4184	1155.38
308.15 K, x1 = 0.8104	995.49
308.15 K, x1 = 0.9022	915.5
308.15 K, x1 = 0.9521	854.41
308.16 K, x1 = 0.1702	1201.91
308.16 K, x1 = 0.5246	1124.75
308.16 K, x1 = 0.616	1093.39
308.16 K, x1 = 0.7074	1054.45
308.16 K, x1 = 1	782.55
313.14 K, x1 = 0.1702	1198.61
313.14 K, x1 = 0.616	1089.32
313.14 K, x1 = 0.7074	1050.7
313.15 K, x1 = 0.077	1210.68
313.15 K, x1 = 0.3671	1164.21
313.15 K, x1 = 0.4184	1151.8
313.15 K, x1 = 0.5246	1121.2
313.15 K, x1 = 0.8104	990.4
313.15 K, x1 = 0.9022	910.11
313.15 K, x1 = 0.9521	848.67
313.15 K, x1 = 1	776.53
313.16 K, x1 = 0.2146	1191.34
